Results from patent US8211895B2, “Capped pyrazinoylguanidine sodium channel blockers” (Parion Sciences, Inc., priority 2005, dated 2012).

system: airway epithelial sodium currents in canine bronchial epithelia (ENaC); experiment: In vitro measure of sodium channel blocking activity (short circuit current, Ussing chambers); assay type: cell-based; details: potency in canine bronchial epithelia, reported as fold-enhancement relative to amiloride
Protocol: In Vitro Measure of Sodium Channel Blocking Activity and Reversibility One assay used to assess mechanism of action and/or potency of the compounds of the present invention involves the determination of lumenal drug inhibition of airway epithelial sodium currents measured under short circuit current (ISC) using airway epithelial monolayers mounted in Ussing chambers. Cells obtained from freshly excised human, dog, sheep or rodent airways are seeded onto porous 0.4 micron Snapwell™ Inserts (CoStar), cultured at air-liquid interface (ALI) conditions in hormonally defined media, and assayed for sodium transport activity (ISC) while bathed in Krebs Bicarbonate Ringer (KBR) in Using chambers. All test drug additions are to the lumenal bath with half-log dose addition protocols (from 1×10^−11 M to 3×10^−5 M), and the cumulative change in ISC (inhibition) recorded. All drugs are prepared in dimethyl sulfoxide as stock solutions at a concentration of 1×10^−2 M and stored at −20° C. Eight preparations are typically run in parallel; two preparations per run incorporate amiloride and/or benzamil as positive controls. After the maximal concentration ([…]) is administered, the lumenal bath is exchanged three times with fresh drug-free KBR solution, and the resultant ISC measured after each wash for approximately 5 minutes in duration. Reversibility is defined as the percent return to the baseline value for sodium current after the third wash. All data from the voltage clamps are collected via a computer interface and analyzed off-line. Dose-effect relationships for all compounds are considered and analyzed by the Prism 3.0 program. IC50 values, maximal effective concentrations, and reversibility are calculated and compared to amiloride and benzamil as positive controls. […] The results for the compounds of the present invention are reported as fold-enhancement values relative to amiloride.

| SMILES | Fold Amiloride |
| --- | --- |
| N=C(NCCCCc1ccc(OCCN(CC(N)=O)CC(N)=O)cc1)NC(=O)c1nc(Cl)c(N)nc1N [Compound 1] | 77 |
| N=C(NCCCCc1ccc(OCCN(CC(=O)O)CC(=O)O)cc1)NC(=O)c1nc(Cl)c(N)nc1N [Compound 2] | 16 |
| N=C(NCCCCc1ccc(OCCNCC(N)=O)cc1)NC(=O)c1nc(Cl)c(N)nc1N [Compound 3] | 10 |
| COC(=O)CC(CC(=O)OC)NCCOc1ccc(CCCCNC(=N)NC(=O)c2nc(Cl)c(N)nc2N)cc1 [Compound 4] | 81 |

system: not given; experiment: not given; details: not given

| melting point | SMILES |
| --- | --- |
| 98 to 100 °C (dec.) | NC(=O)CN(CCOc1ccc(CCCCNC(N)=NC(=O)c2nc(Cl)c(N)nc2N)cc1)CC(N)=O [ALB 28062, 2-{Carbamoylmethyl-[2-(4-{4-[N′-(3,5-diamino-6-chloropyrazine-2-carbonyl)-guanidino]butyl}phenoxy)ethyl]amino}acetamide] |
| 84 to 88 °C | COC(=O)CC(CC(=O)OC)NCCOc1ccc(CCCCNC(N)=NC(=O)c2nc(Cl)c(N)nc2N)cc1 [ALB 28588, 3-[2-(4-{4-[N′-(3,5-Diamino-6-chloropyrazine-2-carbonyl)guanidino]butyl}phenoxy)ethylamino]pentanedioic acid dimethyl ester] |
| 92 to 94 °C (dec.) | NC(=O)CNCCOc1ccc(CCCCNC(N)=NC(=O)c2nc(Cl)c(N)nc2N)cc1 [ALB 28683, 2-[2-(4-{4-[N′-(3,5-Diamino-6-chloropyrazine-2-carbonyl)guanidino]butyl}-phenoxy)ethylamino]acetamide] |
| 110 to 112 °C (dec.) | NC(=NC(=O)c1nc(Cl)c(N)nc1N)NCCCCc1ccc(OCCNCC(=O)O)cc1 [ALB 28897, [2-(4-{4-[N′-(3,5-Diamino-6-chloropyrazine-2-carbonyl)guanidino]butyl}-phenoxy)ethylamino]acetic acid] |
